Results reported in patent US12351574B2, “Selective ligands for modulation of GIRK channels” (Northeastern University, priority 2018, dated 2025).

Legend:
[1] = system: right atrium of isolated Langendorff-perfused mouse heart; test: optical mapping of atrial action potential duration in isolated Langendorff-perfused mouse heart; conditions: for atrial optical action potential duration 70% repolarization (APD70), quantification: 2.4 μM, 10 Hz stimulation, FIGS. 23A-23B, controls 23.93 (ML297) and 23.1 (GAT1508); for average APD70 of the map of the stimulated right atrium: 10 minutes after 2.4 μM, 10 Hz, FIG. 22, controls 23.9 (ML297) and 21.8 (GAT1508)
Protocol: Optical mapping studies in isolated hearts: Isolated hearts of C57BL/6 mice, four to six months of age, were retrogradely perfused with Tyrode's solution in the Langendorff mode. The preparations were maintained at 37° C., and stained with a bolus of a voltage sensitive dye (0.25 ml, 10 μM Di-4-ANEPPS, Molecular Probes) and imaged with a CCD camera (RedShirt Imaging), 80×80 pixels, 85 μm per pixel, and 1000 frames per second. […] A bipolar, silver tip stimulation electrode was used to pace the right atrium (2.5 5 ms pulses, 2× diastolic threshold) at 10 Hz using an AD Instrument stimulation platform. ML297 or GAT1508 at 2.4 μM were introduced into the perfusate. The action potential duration at 70% repolarization (APD70), was quantified as the inventors have done extensively.

open-field (OF) test = format: in vivo, rat
Text: Open-field (OF) test: The OF apparatus is a plexiglass open-topped chamber (91.5×91.5×30.5 cm), filmed by a ceiling-mounted CCD camera and illuminated by a 25 W red light bulb placed 2 meters above the center of the chamber. […] The automated tracking system ANY-MAZE (ANY-MAZE, Stoelting Co., Wood Dale, IL, USA) was utilized to measure total distance traveled and mean speed.

GIRK1/4 = target: T1, GIRK1/4 (Homo sapiens, UniProt P48544+P48549); test: thallium flux assay, cells expressing GIRK1/4; format: cell-based; design: expressed in transfected cells
T1 sequence (P48549 1-501): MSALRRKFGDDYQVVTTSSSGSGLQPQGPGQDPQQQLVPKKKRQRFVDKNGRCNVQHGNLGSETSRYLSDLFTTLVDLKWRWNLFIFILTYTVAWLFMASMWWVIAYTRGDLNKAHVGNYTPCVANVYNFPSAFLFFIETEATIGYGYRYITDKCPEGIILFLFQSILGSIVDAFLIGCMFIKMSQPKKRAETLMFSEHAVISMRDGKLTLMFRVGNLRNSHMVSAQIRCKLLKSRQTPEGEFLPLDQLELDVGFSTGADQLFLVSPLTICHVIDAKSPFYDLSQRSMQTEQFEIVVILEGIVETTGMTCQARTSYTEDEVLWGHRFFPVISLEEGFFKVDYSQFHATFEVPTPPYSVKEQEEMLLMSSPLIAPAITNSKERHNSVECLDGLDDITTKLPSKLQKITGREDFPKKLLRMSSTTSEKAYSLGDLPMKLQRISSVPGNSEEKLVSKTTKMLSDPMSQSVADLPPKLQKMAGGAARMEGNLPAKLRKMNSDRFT
T1 sequence (P48544 1-419): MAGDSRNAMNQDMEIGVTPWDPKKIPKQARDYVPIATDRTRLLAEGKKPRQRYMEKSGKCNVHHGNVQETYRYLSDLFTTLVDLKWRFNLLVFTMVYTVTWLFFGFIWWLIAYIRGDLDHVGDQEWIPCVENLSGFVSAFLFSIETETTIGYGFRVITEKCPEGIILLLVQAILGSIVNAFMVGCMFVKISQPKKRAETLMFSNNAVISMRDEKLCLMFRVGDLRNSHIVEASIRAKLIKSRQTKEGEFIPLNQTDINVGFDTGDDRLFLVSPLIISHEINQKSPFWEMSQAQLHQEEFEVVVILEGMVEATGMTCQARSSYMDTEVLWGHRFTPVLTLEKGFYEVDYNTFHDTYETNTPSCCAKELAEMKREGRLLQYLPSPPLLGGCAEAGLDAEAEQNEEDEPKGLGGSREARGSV
Text: Previous studies have utilized the thallium flux Assay to test the effects of ML297 and related compounds in cells coexpressing GIRK1/2 and GIRK1/4. In order to fully investigate the selective activation of GAT compounds, the inventors also utilized this assay. […] To determine the differences between the thallium flux and TEVC assays, the inventors computationally tested whether the binding of selective compounds could affect the selectivity of the pore area. The Cα RMSF of the region between the M1 and M2 helices of the channel were calculated during the MD simulation with or without ML297 and the selective GAT compounds in the GIRK2/2^FD and GIRK4/4^FD systems (FIGS. 60A-60B). […] To further test this idea, the inventors compared the 10 μM GAT1508-induced thallium and potassium currents in oocytes expressing GIRK1/2 and GIRK1/4 by TEVC recording (FIG. 61B). […] In an effort to enhance the current, the TEVC recording was performed at a holding potential of −100 mV.

[2] = 30 and 60 mg/kg, 30 min after treatment

## Cc1cc(NC(=O)Nc2ccc(Br)s2)n(-c2ccccc2)n1 [GAT1508, 1-(5-bromothiophen-2-yl)-3-(3-methyl-1-phenyl-1H-pyrazol-5-yl)urea]
[1]
  atrial optical action potential duration 70% repolarization (APD70), quantification: 23.57 ms
  average APD70 of the map of the stimulated right atrium: 20.3 ms
open-field (OF) test; 10 and 30 mg/kg i.p.
  mean speed in the OF test (in words): comparable to the vehicle group
  total distance travelled in the OF test (in words): comparable to the vehicle group
GIRK1/4; concentration-response, FIG. 61A
  activation of GIRK1/4 in thallium flux assay (in words): also activated the cardiac heteromer

## Cc1cc(NC(=O)Nc2ccc(F)c(F)c2)n(-c2ccccc2)n1 [ML297, reference compound]
[1]
  atrial optical action potential duration 70% repolarization (APD70), quantification: 16.53 ms
  average APD70 of the map of the stimulated right atrium: 16 ms
open-field (OF) test; [2]
  mean speed in the open arena (in words): comparable to the vehicle group
  total distance traveled in the open arena (in words): comparable to the vehicle group
GIRK1/4; thallium flux assay
  EC50: ~2890 nM
